Tested on: dopamine receptor binding sites
Experiment: 3H-Haloperidol Receptor Binding Assay (HRBA)
Settings: at 10^-8 mol/L concentration in vitro
From the text: As with other known antipsychotics, the compounds of formula I readily displace ^3 H-haloperidol from dopamine receptor binding sites in the ^3 H-Haloperidol Receptor Binding Assay (HRBA). […] The HRBA screen is described by I. Creese, D. R. Burt and S. H. Snyder, Science, 192, 481 (1976) and P. Seeman, T. Lee, M. Chan-Wong and K. Wong, Nature, 261, 717 (1976).

inhibition of 3H-haloperidol: 87%
Compound: O=C(CCCN1CC=C(Oc2ccc(F)cc2)CC1)c1ccc(F)cc1 [Example 9, 4-[4-(4-Fluorophenoxy)-1,2,3,6-tetrahydro-1-pyridinyl]-1-(4-fluorophenyl)-1-butanone(Z)-2-Butenedioate]

Reference: US4218456A, “1-(4-Fluorophenyl)-4-(1,2,3,6-tetrahydro-4-phenoxy-1-pyridinyl)-butanones” (Warner-Lambert Company, priority 1978, dated 1980)
